Measurements taken from patent publication US20100105864A1, “PROPHYLACTIC OR THERAPEUTIC AGENT FOR DIARRHEA” (priority 2007, published 2010).

Biological target: T1, human calcium receptor (Homo sapiens, UniProt P41180)
T1 construct: expressed in transfected cells; host or cells: Xenopus laevis oocytes injected with cRNA
T1 sequence (P41180 20-1078): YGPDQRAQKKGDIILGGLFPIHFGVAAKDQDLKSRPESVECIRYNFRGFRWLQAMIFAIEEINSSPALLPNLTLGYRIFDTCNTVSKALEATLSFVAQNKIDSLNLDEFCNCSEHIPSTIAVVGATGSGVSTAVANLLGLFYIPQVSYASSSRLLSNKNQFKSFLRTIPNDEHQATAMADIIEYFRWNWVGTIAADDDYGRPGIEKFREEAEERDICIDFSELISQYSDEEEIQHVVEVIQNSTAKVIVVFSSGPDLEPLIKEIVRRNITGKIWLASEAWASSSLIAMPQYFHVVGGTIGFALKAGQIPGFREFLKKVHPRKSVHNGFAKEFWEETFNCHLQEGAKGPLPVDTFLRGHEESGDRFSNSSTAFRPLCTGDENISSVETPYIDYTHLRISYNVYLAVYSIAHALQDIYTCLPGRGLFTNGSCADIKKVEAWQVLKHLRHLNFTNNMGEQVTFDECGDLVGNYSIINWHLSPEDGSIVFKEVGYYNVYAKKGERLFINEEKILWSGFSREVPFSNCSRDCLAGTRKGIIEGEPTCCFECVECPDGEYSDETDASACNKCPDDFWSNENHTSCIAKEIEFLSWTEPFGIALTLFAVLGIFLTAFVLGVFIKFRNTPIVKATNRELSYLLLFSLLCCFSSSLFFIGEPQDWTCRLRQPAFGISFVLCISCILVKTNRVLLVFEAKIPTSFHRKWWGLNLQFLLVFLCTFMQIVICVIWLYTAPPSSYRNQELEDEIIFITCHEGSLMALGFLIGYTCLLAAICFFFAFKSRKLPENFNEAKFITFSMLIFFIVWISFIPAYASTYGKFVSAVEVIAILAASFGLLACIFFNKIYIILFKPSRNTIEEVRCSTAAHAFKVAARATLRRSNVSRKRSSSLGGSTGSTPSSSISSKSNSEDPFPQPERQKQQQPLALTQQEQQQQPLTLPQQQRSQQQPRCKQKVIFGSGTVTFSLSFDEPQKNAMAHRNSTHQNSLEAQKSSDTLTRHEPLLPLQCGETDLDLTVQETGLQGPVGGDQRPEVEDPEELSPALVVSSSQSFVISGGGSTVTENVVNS
Experiment: Ca ion concentration-dependent Cl ionic current measurement in Xenopus laevis oocytes expressing the calcium receptor
Format: cell-based
Conditions: peptide added at 50 μM
Protocol: For evaluation of the calcium receptor-activating action, a Ca ion concentration-dependent Cl ionic current measuring method using a Xenopus laevis oocyte expression system was used. If each activator is added to Xenopus laevis oocytes expressing the calcium receptor, intracellular Ca ions increase. Then, the Ca ion concentration-dependent Cl channel opens, and the intracellular current value changes as an ionic current. By measuring the change in the intracellular current value, whether the calcium receptor-activating action is present or not can be determined.
Specifically, the abdomen of Xenopus laevis was opened, and an egg batch was taken out and then treated with a 1% collagenase solution at 20° C. for 2 hours to obtain individual oocytes. Into the oocytes, 50 nl of 1 μg/μl receptor cRNA or 50 nl of sterilized water per oocyte were injected by using a micro glass capillary, and the oocytes were cultured at 18° C. for 2 to 3 days. For the culture, a solution obtained by adding 2 mM pyruvic acid, 10 U/ml penicillin, and 10 μg/ml streptomycin to the solution in Example 2 was used. After the culture, a test solution was added to the oocytes injected with cRNA or sterilized water. Electrophysiological measurement was performed by using an amplifier Geneclamp 500 (manufactured by Axon) and recording software AxoScope 9.0 (manufactured by Axon). The oocytes were membrane potential-clamped at −70 mV by the double electrode potential clamp method, and the intracellular current was measured via the Ca ion concentration-dependent Cl ion channel. The maximum value of the intracellular current was defined as the response current value. […]
The calcium receptor-activating action of L-amino acids was evaluated by using the method described in Example 13. That is, oocytes injected with cRNA of the calcium receptor or sterilized water were prepared, and membrane potential-clamped at −70 mV by the double electrode potential clamp method. To the potential-clamped oocytes, alanine (10 mM), arginine (10 mM), asparagine (10 mM), aspartic acid (10 mM), cysteine (10 mM), glutamine (10 mM), glutamic acid (10 mM), glycine (10 mM), histidine (10 mM), isoleucine (10 mM), leucine (10 mM), lysine (10 mM), methionine (10 mM), phenylalanine (10 mM), proline (10 mM), serine (10 mM), threonine (10 mM), tryptophan (10 mM), tyrosine (10 mM), valine (10 mM), ornithine (10 mM), taurine (10 mM), or hydroxyproline (10 mM) was added, and Ca ion concentration-dependent Cl response current was measured. […] As for the above-described amino acids, the activating action is reported in Proc. Natl. Acad. Sci. USA, Apr. 25, 2000, 97(9): 4814-9.
The calcium receptor-activating action of D-cysteine was evaluated by using the method described in Example 13. That is, oocytes injected with cRNA of the calcium receptor or sterilized water were prepared, and membrane potential-clamped at −70 mV by the double electrode potential clamp method. To the potential-clamped oocytes, D-cysteine (10 mM), L-cysteine (10 mM), D-tryptophan (10 mM), or L-tryptophan (10 mM) was added, and Ca ion concentration-dependent Cl response current was measured.
The calcium receptor-activating action of a peptide was evaluated by using the method described in Example 13. That is, oocytes injected with cRNA of the calcium receptor or sterilized water were prepared, and membrane potential-clamped at −70 mV by the double electrode potential clamp method.

`N[C@@H](CCC(=O)N[C@@H](CS)C(=O)NCC(=O)O)C(=O)O` [γ-Glu-Cys-Gly] was tested, and the “calcium receptor-activating action (Ca ion concentration-dependent Cl response current)” value was “definite calcium receptor-activating action”.
